Laboratory results published in ChEMBL document CHEMBL4715893, “Inhibitory effects of sesquiterpene lactones from the Indonesian marine sponge Lamellodysidea cf. herbacea on bone morphogenetic protein-induced osteoblastic differentiation” (Bioorg Med Chem Lett, 2021).
pIC50: −log10 of the molar value.

Legend:
[1] = Inhibition of BMP-induced mouse C2C12 cells osteoblastic differentiation assessed as reduction in alkaline phosphatase activity; assay type: functional, cell-based
C2C12 = experiment: Cytotoxicity against mouse C2C12 cells assessed as reduction in cell viability by MTT assay; assay type: cell-based

C=C1C[C@@H]2C[C@@](C)(CCC3=CC(=O)O[C@@]32OC)[C@H]1C
pIC50 [1]: 4.29
pIC50 (C2C12): < 4.12

COC1C=C(CC[C@]2(C)C(C)=CCC[C@H]2C)C(=O)O1 (stereo partly specified)
pIC50 [1]: 4.70
pIC50 (C2C12): < 4.42

CC1=CCC[C@@H](C)[C@]1(C)CCC1=CC(=O)OC1O (stereo partly specified)
pIC50 [1]: 5.32
pIC50 (C2C12): < 4.40
